Here are results for 14 molecules from patent publication US8877889B2, “Tumor cell-killing peptides” (Industry-Academic Cooperation Foundation, Chosun University, priority 2009, dated 2014).

Entries after “also recorded” stand apart in the source; their conditions may differ.

What all share (type): cell-based
Assay [1] relates to HeLa cells. Briefly: Cell death after transfection of Noxa constructs, counting EGFP-positive dead cells. The conditions noted are these: for cell death after over-expression: within 11 hrs after transfection (FIG. 1D); for cell death-inducing activity of Noxa point mutants: 20 hours after transfection (FIG. 3B); for cell death-inducing activity of leucine substitution mutants 4Lmt, 5Lmt: HeLa cells transfected (FIG. 8A). As for the experimental part:
(D) HeLa cells were transfected with deletion mutants of Noxa. At 11 hrs, 24 hrs, and 36 hrs after transfection, cell death was determined by counting EGFP-positive dead cells with morphological changes using the fluorescent microscope.
(B) HeLa cells were transfected with WT or with the indicated Noxa mutants. 20 hours after transfection cell death was determined by counting the EGFP-positive dead and survived cells under the fluorescent microscope.
(A) HeLa cells were transfected with either WT Noxa, 4Lmt (L42A, L43A, L45A, L49A), or 5Lmt (L29A, L42A, L43A, L45A, L49A) constructs. At the indicated times after transfection, cell death was determined by counting the EGFP-positive dead cells with morphological changes under the fluorescent microscope.
HeLa cells were transfected with EGFP-Noxa WT and 41-54 in combination with Bcl-2 expression plasmid or in the presence of zVAD-fmk (25 μM). 18 hours after transfection, cell death was determined by counting EGFP-positive dead cells with morphological changes using the fluorescent microscope. Data represent an average±SD of three experiments each with 200 total cells counted.
The percentage of cell death was determined by counting EGFP-positive dead cells with morphology using the fluorescent microscope. Minimally, 300 cells in three separate fields were counted for each measurement.

The subject of assay [2] is HeLa cells. Briefly: Mitochondrial localization of Noxa mutants, confocal microscopy. The conditions noted are these: confocal microscopic image analysis. The source says: (B) HeLa cells were co-transfected with the pDsRed2-Mito and either Noxa 4Lmt or Noxa 5Lmt. 18 hrs after transfection the mitochondrial morphology was observed under the laser confocal microscope.

Assay [3] relates to CT26 mouse colon carcinoma cells. The assay is described as follows: Tumor cell killing activity, bright field images. As to conditions: 10 μM peptide (FIG. 9A). As to the method: (A) CT26 cells were treated with 10 μM MTD, TU1:MTD, TU2:MTD, or TU3:MTD peptides, and bright field images for indicated peptides were obtained at indicated time points. Representative images of at least 3 individual experiments were presented.

For assay [4], the system named is HeLa cells. The assay is described as follows: Peptide-induced cell death, counting dead and survived cells under the light microscope. The conditions noted are these: peptides 10 μM, 20 μM, 30 μM, 10 minutes after treatment (FIG. 1B, 3A). As to the method: (B) HeLa cells were treated with DMSO or the indicated peptides in increasing doses (10 μM, 20 μM, and 30 μM). % of cell death was determined at 10 minutes after treatment by counting the dead cells and survived cells under the light microscope.
(E) HeLa cells were transfected with substitution mutants of MTD peptide.
HeLa cells were treated with DMSO or with the indicated peptides at increasing doses (10 μM, 20 μM, or 30 μM). % cell death was determined 10 minutes after treatment by counting the dead cells and survived cells (300 cells per sample) under the light microscope.
(D) HeLa cells were treated with indicated amounts of MTD peptide for 1 hour, 2 hours, or 5 hours. % cell death was calculated by counting the dead cells and survived cells (200 to 500 cells per sample) under the light microscope. Data represent the means±SD of three independent experiments.

A further assay concerns NCI-H460 cells. The assay is described as follows: Peptide-induced cell death in NCI-H460 cells. The conditions noted are these: 5 μM, 2 or 5 hours (FIG. 3C). As for the experimental part:
(C) NCI-H460 cells were treated with indicated peptides for 2 hours or 5 hours. % cell death was determined as described above.

Assay [5] relates to HeLa cells. The assay is described as follows: Measurement of intracellular calcium with Fluo-4-AM. As to conditions: 3 μM peptide. As for the experimental part: (A-C) HeLa cells were loaded with 3 μM Fluo-4-AM for 30 minutes and then treated with 3 μM of indicated peptides (A: MTD, B: MTDmt3, C: MTDmt5). Fluorescence images and bright-field images were obtained with the laser scanning confocal microscope at 5-second intervals for 5 minutes. Relative fluorescence intensities (F/F0) at two region-of-interests (ROI 1 and 2) were measured at 5-second intervals for 5 minutes.
(E-G) HeLa cells were pretreated in calcium free KRB media alone (E), in KRB media with 10 μM 2-APB and 20 μM Ryanodine (F), or in KRB media with freshly made 30 μM CsA (G) for 2 hours. HeLa cells were then loaded with 3 μM Fluo-4-AM for 30 minutes and treated with 3 μM of MTD peptide. Images were obtained with the laser scanning confocal microscope at 5-second intervals for 5 minutes. Relative fluorescence intensities (F/F0) at two region-of-interests (ROI 1 and 2) were measured at 5-second intervals for 5 minutes.
For Ca^2+ measurements in the cytosol, HeLa cells were cultured in an Lab-Tek™ Chamber glass slide and loaded with Fluo-4-AM (Fluo-4-acetoxymethyl ester) at a final concentration of 3 μM for 30 minutes, followed by washing with PBS (Phosphate buffered saline) at pH 7.4 and the addition of fresh Ca^2+-free Krebs-ringer modified buffer (KRB: 125 mM NaCl, 5 mM KCl, 1 mM Na3PO4, 1 mM MgSO4, 5.5 mM glucose, and 20 mM HEPES, pH 7.4, at 37° C.) containing the indicated peptides. Time-lapse images were obtained at 488 nm excitation with the Argon laser scanning confocal microscope (Leica TCS SP5 Microsystems, Mannheim, Germany) at 10-second intervals for 5 minutes to visualize Fluo-4-AM.

The subject of assay [6] is HeLa cells. Briefly: Caspase activation, western blot of cell lysates. As to conditions: 5 μM peptide. As to the method: (E) After treatment with the MTD peptide, MTDmt4, or MTDmt5 (5 μM) in HeLa cells, cell lysates were prepared at indicated times. Equal amounts of proteins were subjected to the SDS-PAGE and blotted onto PVDF membrane. After blocked with 5% nonfat milk in TBST (10 mM Tris-HCl, pH 7.5, 100 mM NaCl and 0.1% Tween-20), the membrane was probed with anti-caspase-3 (SantaCruz Biotechnology, Inc., Santa Cruz, Calif., USA), anti-caspase-8 (Cell signaling technology, Beverly, Mass., USA), anti-caspase-9 (SantaCruz Biotechnology, Inc., Santa Cruz, Calif.), anti-XIAP (Upstate Biotechnology, Dundee, United Kingdom), or anti-Bid (home-made) antibodies. Anti-actin antibody (Chemicon International, Inc., Temecula, Calif., USA) was used as equal loading control.
(In general: A western blot detects proteins with antibodies after separation by electrophoresis.)

Assay [7] relates to HeLa cells. The assay is described as follows: Live cell images and annexin V / SYTOX Green staining of dying cells. As to conditions: MTD peptide 10 μM or TRAIL 100 ng/ml (FIG. 2A, 7A, 7B). As for the experimental part:
(A) HeLa cells were treated with MTD peptides (10 μM), or TRAIL (100 ng/ml). Images were taken at the indicated times (upper panel). Jurkat cells were treated with MTD peptide (10 μM) for 10 minutes, cells were processed for TEM. Images were obtained with 4,000× magnification (lower panel). N: nucleus, M: mitochondrion.
(D) HeLa cells were treated with the MTD (5 μM) peptide with or without the pretreatment of 10 μM BAPTA-AM for 2 hours. Live cell images were serially acquired at 10-second intervals for 10 minutes and shown at the indicated times.
(A) HeLa cells were stained with FITC-conjugated Annexin V antibody at 10 minutes after DMSO or MTD treatment. Images were obtained under the confocal microscope.
(B) HeLa cells were stained with SYTOX Green 10 minutes after DMSO or MTD treatment. Images were obtained using confocal microscope.

For the molecule “1-30: Noxa deletion mutant which did not contain any domains (MPGKKARKNAQPSPARAPAELEVECATQLR; UniProt Q13794 1-30, looked up, fragment)”, in the assay with HeLa cells [1] (HeLa cells), the “cell death after over-expression” value is “no effect on cell death”.

With “3Lmt: Noxa triple substitution L45A, L49A and L29A (MPGKKARKNAQPSPARAPAELEVECATQARRFGDKLNFRQKLLNAISKAFCSGT; UniProt Q13794 1-54, looked up, variant L29A L45A L49A)”, the “cell death-inducing activity of Noxa point mutants” value in the assay on HeLa cells [1] (HeLa cells) is recorded as “remarkably reduced the cell death-inducing activities”. For “4Lmt: Noxa mutant with L42A, L43A, L45A and L49A (MPGKKARKNAQPSPARAPAELEVECATQLRRFGDKLNFRQKAANAISKAFCSGT; UniProt Q13794 1-54, looked up, variant L42A L43A L45A L49A)”, the “cell death-inducing activity of leucine substitution mutants 4Lmt, 5Lmt” value in the assay on HeLa cells [1] is “almost completely lost all of the cell death-inducing activity”. The mitochondrial localization entry in the assay with HeLa cells [2] is listed as “loss of Noxa mitochondrial localization”.

Turning to “5Lmt: Noxa mutant with L29A, L42A, L43A, L45A and L49A (MPGKKARKNAQPSPARAPAELEVECATQARRFGDKLNFRQKAANAISKAFCSGT; UniProt Q13794 1-54, looked up, variant L29A L42A L43A L45A L49A)”, the “cell death-inducing activity of leucine substitution mutants 4Lmt, 5Lmt” value with HeLa cells [1] is reported as “almost completely lost all of the cell death-inducing activity”. In the assay on HeLa cells [2], the mitochondrial localization entry is “loss of Noxa mitochondrial localization”. For the molecule “21-40: Noxa deletion mutant containing only the BH3 domain (LEVECATQLRRFGDKLNFRQ; UniProt Q13794 21-40, looked up, fragment)”, the “cell death-inducing activity after over-expression, with increasing time” value with HeLa cells [1] (HeLa cells, 24 hrs and 36 hrs after transfection (FIG. 1D)) is on record as “strong cell death-inducing activity”. The “membrane morphology of transfected cells” value in the assay on HeLa cells [1] (HeLa cells, data not shown) is “membrane blebbings”. Besides, the “cell death after over-expression” value in the assay with HeLa cells [1] (HeLa cells) is “induced little cell death within 11 hrs”. Regarding CNGRCGGKLLNLISKLF [TU1:MTD], the “tumor cell killing activity” value in assay [3] is reported as “no or little killing activity”. As for “L29A: Noxa single substitution in the BH3 domain (MPGKKARKNAQPSPARAPAELEVECATQARRFGDKLNFRQKLLNLISKLFCSGT; UniProt Q13794 1-54, looked up, variant L29A)”, the “cell death-inducing activity of Noxa point mutants” value in the assay with HeLa cells [1] (HeLa cells) is on record as “remarkably reduced the cell death-inducing activities”. Consider “L42A (MPGKKARKNAQPSPARAPAELEVECATQLRRFGDKLNFRQKALNLISKLFCSGT; UniProt Q13794 1-54, looked up, variant L42A)”, for which the mitochondrial localization result in the assay on HeLa cells [2] is “maintained the typical mitochondrial localization of Noxa”.

As for “L43A (MPGKKARKNAQPSPARAPAELEVECATQLRRFGDKLNFRQKLANLISKLFCSGT; UniProt Q13794 1-54, looked up, variant L43A)”, in the assay with HeLa cells [2], the mitochondrial localization result is listed as “maintained the typical mitochondrial localization of Noxa”. Turning to “L45A (MPGKKARKNAQPSPARAPAELEVECATQLRRFGDKLNFRQKLLNAISKLFCSGT; UniProt Q13794 1-54, looked up, variant L45A)”, the “cell death-inducing activity of Noxa point mutants” value in the assay on HeLa cells [1] (HeLa cells) is “remarkably reduced the cell death-inducing activities”. Besides, the mitochondrial localization entry with HeLa cells [2] is “maintained the typical mitochondrial localization of Noxa”. For “L49A (MPGKKARKNAQPSPARAPAELEVECATQLRRFGDKLNFRQKLLNLISKAFCSGT; UniProt Q13794 1-54, looked up, variant L49A)” the same measures were “remarkably reduced the cell death-inducing activities” and “maintained the typical mitochondrial localization of Noxa”. On to “RRRRRRRRGRQKLLNAASKLF (PTD-MTDmt3 fusion peptide derived from Homo sapiens)”, for which the “cell death-inducing activity (% of cell death)” value in the assay on HeLa cells [4] is recorded as “completely lost their cell death-inducing activities; also recorded: no cell death”. The “susceptibility of cells to peptide” value in the assay on NCI-H460 cells is “not”. Further, the “cytosolic calcium level change” value with HeLa cells [5] was “did not induce changes in the cytosolic calcium level”. Turning to “RRRRRRRRGRQKLLNLIAALF (PTD-MTDmt4 fusion peptide derived from Homo sapiens)”, the “cell death-inducing activity (% of cell death)” value with HeLa cells [4] is given as “maintaining the killing activity”. Also, the caspase activation entry with HeLa cells [6] is “not activated”.

B1: TRAIL (protein, UniProt P50591 1-281, looked up)
Tumor necrosis factor ligand …: MAMMEVQGGPSLGQTCVLIVIFTVLLQSLCVAVTYVYFTNELKQMQDKYSKSGIACFLKEDDSYWDPNDEESMNSPCWQVKWQLRQLVRKMILRTSEETISTVQEKQQNISPLVRERGPQRVAAHITGTRGRSNTLSSPNSKNEKALGRKINSWESSRSGHSFLSNLHLRNGELVIHEKGFYYIYSQTYFRFQEEIKENTKNDKQMVQYIYKYTSYPDPILLMKSARNSCWSKDAEYGLYSIYQGGIFELKENDRIFVSVTNEHLIDMDHEASFFGAFLVG
notes: apoptosis inducer used at 100 ng/ml for comparison
B1: in the assay on HeLa cells [7], the “morphology of dying cells” value is “membrane shrinkage of apoptotic cells”.
